Holding throughout (assay): drug sensitivity score (DSS2, normalised partial AUC of dose-response, 72 h CellTiter-Glo viability) (DSS (dimensionless)); higher = more sensitive (stronger growth inhibition / cytotoxicity); extreme values may be limits of the assay
(In general: Cellular ATP, detected with luciferase, serves as a proxy for viable cell number.)

In one assay the test system is CAF#4 (primary prostate cancer-associated fibroblasts of iCAF-like type). The essentials: (§1)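 Five doses spanning a 10,000-fold range were pre-dispensed into 384-well plates, into which low-passage primary prostate cancer-associated fibroblasts, PF179T, WPMY-1, LNCaP and 22Rv1 cells were seeded. After 72 h, CellTiter-Glo 2.0 luminescence measured viability, scaled to vehicle and positive-control wells. Higher values of the drug sensitivity score, a BREEZE-computed partial area under the fitted logistic dose–response curve divided by the log of the upper asymptote, mean greater sensitivity.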

Another assay deals with LNCAP. The essentials: as §1
The next assay deals with PF179T. The essentials:
as §1

The subject of another assay is CAF#5 (primary prostate cancer-associated fibroblasts of myCAF-like type). The essentials: as §1
For another assay, the system named is CAF#2 (primary prostate cancer-associated fibroblasts of iCAF-like type). The essentials:
as §1

The next assay relates to WPMY-1. Put shortly: as §1
The next assay concerns CAF#1 (primary prostate cancer-associated fibroblasts of myCAF-like type). The essentials: as §1
The subject of a further assay is CAF#3 (primary prostate cancer-associated fibroblasts of myCAF-like type). The essentials:
as §1

The next assay relates to CAF#7 (primary prostate cancer-associated fibroblasts of myCAF-like type). Put shortly:
as §1

The next assay has as its system 22Rv1. The essentials:
as §1

For the next assay, the system named is CAF#6 (primary prostate cancer-associated fibroblasts of iCAF-like type). Put shortly:
as §1

Turning to `N#CC(c1ccnc(OCc2ccc(CN3CCOCC3)cc2)n1)c1nc2ccccc2s1` (configuration not stated) [Bentamapimod] (tested concentration range 1-10000 nM), the drug sensitivity score with CAF#4 was 3.4; with LNCAP, 5.2; in the assay on PF179T, 0; in the assay with CAF#5, 0; with CAF#2, 2.6; in the assay with WPMY-1, 2.8. Besides, the drug sensitivity score with CAF#1 worked out at 1.7; in the assay with CAF#3 it was 0; with CAF#7 it was 0; in the assay with 22Rv1, 1.8; with CAF#6 it was 0.
With `C=C(c1ccc(C(=O)O)cc1)c1cc2c(cc1C)C(C)(C)CCC2(C)C` [Bexarotene] (tested concentration range 1-10000 nM), the drug sensitivity score in the assay with CAF#4 was 3.7; with LNCAP, 0; in the assay with PF179T, 10.2; with CAF#5 it was 3.8; in the assay with CAF#2, 10.1; with WPMY-1, 2.1. The drug sensitivity score is 4.7 in the assay on CAF#1; 0 with CAF#3; 1.2 with CAF#7; 1.6 in the assay with 22Rv1; 0 in the assay on CAF#6.
For the molecule `CC(O)(CS(=O)(=O)c1ccc(F)cc1)C(=O)Nc1ccc(C#N)c(C(F)(F)F)c1` (configuration not stated) [Bicalutamide] (tested concentration range 1-10000 nM), the drug sensitivity score is 0 in the assay with CAF#4; 2.3 with LNCAP; 0.2 with PF179T; 1.2 with CAF#5; 1.5 in the assay with CAF#2; 0 in the assay on WPMY-1. In addition, the drug sensitivity score with CAF#1 turned out to be 1.7; in the assay with CAF#3 it was 1.4; in the assay on CAF#7, 0.5; with 22Rv1 it was 0.5; in the assay on CAF#6 it was 1.1.
Consider `CCNC(=O)CCC/C=C\C[C@@H]1[C@@H](/C=C/[C@@H](O)CCc2ccccc2)[C@H](O)C[C@@H]1O` [Bimatoprost] (tested concentration range 0.6-5500 nM), for which the drug sensitivity score in the assay with CAF#4, in the assay on LNCAP, with PF179T, with CAF#5, in the assay with CAF#2 and with WPMY-1 was 0 throughout. Moreover, the drug sensitivity score is 0 with CAF#1; 0.1 in the assay with CAF#3; 0 in the assay with CAF#7; 0 in the assay on 22Rv1; 0 with CAF#6.
As for `Cn1cnc2c(F)c(Nc3ccc(Br)cc3F)c(C(=O)NOCCO)cc21` [Binimetinib] (tested concentration range 0.1-1000 nM), the drug sensitivity score with CAF#4 was 0; in the assay on LNCAP it was 0; in the assay with PF179T, 0; with CAF#5, 0.8; in the assay on CAF#2, 2.2; with WPMY-1, 0.9. The drug sensitivity score in the assay with CAF#1 was determined as 0; in the assay with CAF#3, 0; in the assay on CAF#7, 0.2; in the assay with 22Rv1 it was 8.7; in the assay on CAF#6, 0.
For the molecule `Cc1sc2c(c1C)C(c1ccc(Cl)cc1)=N[C@@H](CC(=O)Nc1ccc(O)cc1)c1nnc(C)n1-2` [Birabresib] (tested concentration range 1-10000 nM), the drug sensitivity score with CAF#4 is 3.4; in the assay with LNCAP, 19.8; with PF179T, 2.8; with CAF#5, 3.1; with CAF#2 it was 9.9; in the assay with WPMY-1, 11.9. In addition, the drug sensitivity score with CAF#1 worked out at 9.4; in the assay with CAF#3, 11.8; with CAF#7 it was 3; with 22Rv1 it was 13.4; with CAF#6 it was 5.1.
On to `CC[C@H](NC(=O)[C@H](C)NC)C(=O)N1C[C@@H](O)C[C@H]1Cc1c(-c2[nH]c3cc(F)ccc3c2C[C@@H]2C[C@H](O)CN2C(=O)[C@H](CC)NC(=O)[C@H](C)NC)[nH]c2cc(F)ccc12` [Birinapant] (tested concentration range 0.1-1000 nM), for which the drug sensitivity score in the assay with CAF#4 stood at 0; in the assay with LNCAP it was 0.1; in the assay with PF179T, 0; in the assay with CAF#5 it was 0; in the assay with CAF#2 it was 0; with WPMY-1, 0. Also, the drug sensitivity score was found to be 0 in the assay with CAF#1; 0 in the assay with CAF#3; 0 in the assay with CAF#7; 0 in the assay on 22Rv1; 0.8 in the assay on CAF#6.
Take `Cc1c(N)nc([C@H](CC(N)=O)NC[C@H](N)C(N)=O)nc1C(=O)N[C@H](C(=O)N[C@H](C)[C@@H](O)[C@H](C)C(=O)N[C@H](C(=O)NCCc1nc(-c2nc(C(=O)NCCC[S+](C)C)cs2)cs1)[C@@H](C)O)[C@@H](OC1OC(CO)C(O)C(O)C1OC1OC(CO)C(O)C(OC(N)=O)C1O)c1cnc[nH]1` (some centres not stated) [Bleomycin] (tested concentration range 1-10000 nM): the drug sensitivity score was 5.7 with CAF#4; 7.5 with LNCAP; 3.3 in the assay with PF179T; 3.2 in the assay with CAF#5; 3.9 in the assay with CAF#2; 0.4 in the assay on WPMY-1. Besides, the drug sensitivity score in the assay on CAF#1 is 0.6; with CAF#3 it was 5.7; in the assay with CAF#7, 9.7; with 22Rv1, 3.7; in the assay on CAF#6, 7.7.
With `CC(C)C[C@H](NC(=O)[C@H](Cc1ccccc1)NC(=O)c1cnccn1)B(O)O` [Bortezomib] (tested concentration range 0.1-1000 nM), the drug sensitivity score with CAF#4 was 20; in the assay on LNCAP, 28.8; in the assay on PF179T, 20.9; in the assay with CAF#5, 28.1; with CAF#2, 30.1; with WPMY-1, 30.6. Further, the drug sensitivity score in the assay on CAF#1 was determined as 23.9; in the assay on CAF#3 it was 26.9; in the assay on CAF#7, 24.3; in the assay on 22Rv1 it was 24.9; with CAF#6 it was 23.7.
Consider `COc1cc(Nc2c(C#N)cnc3cc(OCCCN4CCN(C)CC4)c(OC)cc23)c(Cl)cc1Cl` [Bosutinib] (tested concentration range 1-10000 nM), for which the drug sensitivity score came to 5.8 with CAF#4; 10.1 with LNCAP; 4.8 in the assay with PF179T; 6.2 in the assay with CAF#5; 8.5 in the assay on CAF#2; 9.2 in the assay with WPMY-1. Also, the drug sensitivity score in the assay on CAF#1 was found to be 7.4; in the assay with CAF#3 it was 6.6; in the assay with CAF#7 it was 4.1; in the assay with 22Rv1, 7.7; with CAF#6, 5.1.
Take `COc1cc(N2CCC(N3CCN(C)CC3)CC2)ccc1Nc1ncc(Cl)c(Nc2ccccc2P(C)(C)=O)n1` [Brigatinib] (tested concentration range 0.1-1000 nM): the drug sensitivity score with CAF#4 was 2.1; in the assay with LNCAP, 0; in the assay on PF179T it was 2.2; in the assay on CAF#5 it was 3.6; with CAF#2, 3.5; with WPMY-1, 2.4. Further, the drug sensitivity score with CAF#1 amounted to 4; with CAF#3 it was 3.1; in the assay with CAF#7, 3; in the assay on 22Rv1, 1.7; in the assay with CAF#6 it was 3.9.
With `Cc1cc2c(F)c(Oc3ncnn4cc(OC[C@@H](C)O)c(C)c34)ccc2[nH]1` [Brivanib] (tested concentration range 0.1-1000 nM), the drug sensitivity score worked out at 0 in the assay with CAF#4; 1.2 in the assay on LNCAP; 0 with PF179T; 0 with CAF#5; 0 in the assay with CAF#2; 0 with WPMY-1. In addition, the drug sensitivity score with CAF#1, with CAF#3, with CAF#7, with 22Rv1 and with CAF#6 was 0 throughout.

The values above are taken from the supplement of paper PMC12592484.
